{
  "source": "patent US20260091136A1",
  "about": "“USING ENHO GENE THERAPY TO TREAT CARDIOMETABOLIC DISEASE” (University of Pittsburgh-of the Commonwealth System of …, priority 2023, published 2026)",
  "key": {"[1]": {"test_system": "GPR19", "experiment": "Wildtype and GPR19-knockout mice on HFpEF diet with or without Adropin", "assay_type": "in vivo", "source_text": "Wildtype and GPR19-knockout (GPR19-KO) mice were given normal chow (control mice), HFpEF diet without Adropin, or HFpEF with Adropin."}, "[2]": {"test_system": "HFpEF mice", "experiment": "Heart, lung and liver mass after four weeks of Adropin in HFpEF mice (Example 1)", "assay_type": "in vivo", "procedure": "Administration of Recombinant Adropin. Mice received low-fat chow or HFpEF diet for 10 weeks. For the following 4 weeks, the mice were maintained on respective diets and received daily injections of recombinant Adropin. Body weight was measured every day during the four weeks of treatment."}, "[3]": {"test_system": "CPT1b", "experiment": "O-GlcNAc co-immunoprecipitation from heart: CPT1b", "assay_type": "in vivo, C57BL/6J mice", "conditions": "Adropin-treated HFpEF mice, relative to levels in chow mice / HFpEF", "source_text": "Animal Care and Use. Male C57BL/6J 8-week-old mice were obtained from the Jackson Laboratory and maintained on chow for 4 weeks to acclimate to their new environment. Animals were housed in the University of Pittsburgh animal facility under standard conditions with ad libitum access to water and food and maintained on a constant 12-hour light/dark cycle. At 12 weeks of age, the mice were exposed to normal chow (Chow; 60% carbohydrate, 26% protein, 14% fat), or a combination of high-fat diet (HFD; 20% carbohydrate, 20% protein, 60% fat) plus No-nitro-L-arginine methyl ester (L-NAME: 0.5 g/L) supplemented in their drinking water after adjusting the pH to 7.4 with 1N NaOH to induce HFpEF [10]. For cohort 1, the mice were subject to the HFpEF diet for 15 weeks. For cohort 2, after 8 weeks of diet, mice were randomly assigned to a control or treatment group receiving daily intraperitoneal injections of either vehicle or recombinant adropin at 450 nmol/kg animal weight prepared in PBS with 0.1% BSA for the remaining 5 weeks of the study. L-NAME supplemented drinking water was changed weekly and adropin was made fresh and sterile filtered before each use.\nCo-Immunoprecipitation. […] Images were obtained using LiCor Odyssey CLx System and protein densitometry was measured using the LiCor Image Studio Lite Ver. […]"}, "[4]": {"conditions": "wildtype HFpEF mice that received Adropin vs wildtype control mice"}},
  "note": "“Also recorded” adds a separate entry of the source.",
  "data": [
    {"substance": "Adropin: recombinant Adropin peptide hormone encoded by the ENHO gene; full-length (SEQ ID NO: 1) or cleaved product of amino acids 34-76 (SEQ ID NO: 2) (CHSRSADVDSLSESSPNSSPGPCPEKAPPPQKPSHEGSYLLQP)", "values": [
      {"measurement": "IVRT", "setting": "[1]; GPR19-KO HFpEF mice vs GPR19-KO control mice, in contrast to wildtype, p-value <0.01", "value": "significantly greater"},
      {"measurement": "diastolic function (MV E/e′)", "setting": "[1]; GPR19-KO mice vs control mice, in contrast to wildtype, p-value <0.001", "value": "remained significantly lower"},
      {"measurement": "fasted body weight of HFpEF mice relative to HFpEF mice that received Adropin", "setting": "[1]; GPR19-KO mice, p-value <0.0001", "value": "significantly greater"},
      {"measurement": "Adropin-mediated improvement of diastolic function in GPR19-KO HFpEF mice", "setting": "[1]; fasted body weight, MV E/e′ and IVRT", "value": "not observed; also recorded: GPR19-dependent"},
      {"measurement": "body weight of GPR19-KO HFpEF mice that received Adropin relative to wildtype HFpEF mice that received Adropin", "setting": "[1]; p-value <0.0001", "value": "significantly greater"},
      {"measurement": "diastolic function (MV E/e′)", "setting": "[1]; wildtype HFpEF mice that received Adropin vs wildtype HFpEF mice without Adropin", "value": "increased on average"},
      {"measurement": "IVRT", "setting": "[1]; [4]", "value": "not significantly different"},
      {"measurement": "diastolic function (MV E/e′)", "setting": "[1]; [4]", "value": "not significantly different"},
      {"measurement": "IVRT", "setting": "[1]; wildtype HFpEF which received Adropin vs wildtype HFpEF mice without treatment, p-value <0.01", "value": "significantly lower"},
      {"measurement": "fasted body weight of HFpEF mice relative to HFpEF mice that received Adropin", "setting": "[1]; wildtype mice, p-value <0.0001", "value": "significantly greater"},
      {"measurement": "lung or liver mass", "setting": "[2]; after 4 weeks", "value": "no differences were observed"},
      {"measurement": "average LV mass (FIG. 3A; cardiac hypertrophy)", "setting": "[2]; following 4 weeks of Adropin, vs HFpEF mice without treatment", "value": "lower; also recorded: reduces"},
      {"measurement": "CPT1b O-GlcNAcylation", "setting": "[3]", "value": "restored; also recorded: reduced"}
    ]}
  ]
}
